Data taken from PMC8489232, “Structural and catalytic characterization of Blastochloris viridis and Pseudomonas aeruginosa homospermidine synthases supports the essential role of cation–π interaction” (Acta Crystallographica. Section D, Structural Biology, 2021).

What was measured:
BvHSS [1] = molecular target: T1, BvHSS (Blastochloris viridis, UniProt O32323, W229F); test: X-ray crystal structure, […] A; assay type: binding; settings: 1.3 mM NAD+ in protein solution; both subunits; PUT soak, no PUT modelled
T1 construct: gene hss; full length in pETM-14, E. coli BL21(DE3) Gold; dimer, 106 kDa theoretical

BvHSS [2] = molecular target: T2, BvHSS (Blastochloris viridis, UniProt O32323, E210A); test: X-ray crystal structure, […] A; assay type: binding; settings: 1.3 mM NAD+ in protein solution; both subunits
T2 construct: gene hss; full length in pETM-14, E. coli BL21(DE3) Gold; dimer, 106 kDa theoretical

PaHSS = molecular target: T3, PaHSS (Pseudomonas aeruginosa, UniProt Q6X2Y9); test: X-ray crystal structure, […] A; assay type: binding
T3 construct: gene CL-17; full length, codon-optimized synthetic gene in pETM-14, E. coli BL21(DE3) Gold; N-terminal 6xHis tag removed with HRV3C protease; 52 kDa monomer in solution (SEC-MALS); crystalline dimers
T3 sequence (Q6X2Y9 1-469): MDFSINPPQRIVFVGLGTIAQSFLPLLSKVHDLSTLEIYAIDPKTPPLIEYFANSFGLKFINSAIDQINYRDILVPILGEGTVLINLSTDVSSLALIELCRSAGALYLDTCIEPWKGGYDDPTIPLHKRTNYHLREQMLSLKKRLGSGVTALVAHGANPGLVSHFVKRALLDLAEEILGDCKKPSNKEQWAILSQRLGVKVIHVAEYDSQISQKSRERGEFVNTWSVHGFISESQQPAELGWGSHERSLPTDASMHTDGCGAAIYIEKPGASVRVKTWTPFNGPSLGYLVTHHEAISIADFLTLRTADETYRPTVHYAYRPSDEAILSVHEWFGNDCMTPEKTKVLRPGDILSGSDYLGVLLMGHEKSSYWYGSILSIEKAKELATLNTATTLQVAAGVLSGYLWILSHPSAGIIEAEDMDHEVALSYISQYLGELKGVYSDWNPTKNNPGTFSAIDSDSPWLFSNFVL

BvHSS [3] = molecular target: T4, BvHSS (Blastochloris viridis, UniProt O32323, W229E); test: X-ray crystal structure, […] A; assay type: binding; settings: 1.3 mM NAD+ in protein solution; both subunits; PUT soak, no PUT modelled
T4 construct: gene hss; full length in pETM-14, E. coli BL21(DE3) Gold; dimer, 106 kDa theoretical

BvHSS [4] = molecular target: T5, BvHSS (Blastochloris viridis, UniProt O32323, E210Q); test: X-ray crystal structure, […] A; assay type: binding; settings: 1.3 mM NAD+ in protein solution; both subunits
T5 construct: gene hss; full length in pETM-14, E. coli BL21(DE3) Gold; dimer, 106 kDa theoretical

BvHSS [5] = molecular target: T6, BvHSS (Blastochloris viridis, UniProt O32323, W229A); test: X-ray crystal structure, […] A; assay type: binding; settings: 1.3 mM NAD+ in protein solution; both subunits; PUT soak
T6 construct: gene hss; full length in pETM-14, E. coli BL21(DE3) Gold; dimer, 106 kDa theoretical

BvHSS [6] = molecular target: T7, BvHSS (Blastochloris viridis, UniProt O32323, E117Q); test: X-ray crystal structure, […] A; assay type: binding; settings: 1.3 mM NAD+ in protein solution; both subunits; two ribose conformers
T7 construct: gene hss; full length in pETM-14, E. coli BL21(DE3) Gold; dimer, 106 kDa theoretical

[7] = molecular target: the molecule itself; test: SEC-MALS; HPLC-MALS of the purified proteins in solution; data not shown; method in Supplementary Section S1
[8] = molecular target: the molecule itself; test: crystal structure; BvHSS variants, hanging-drop vapor diffusion at 291 K, sodium acetate pH 4.6-4.8, PEG 10 000, with NAD+ and agmatine sulfate; space group P22(1)2(1), two molecules in the asymmetric unit

NC(=O)c1ccc[n+]([C@@H]2O[C@H](COP(=O)(O)OP(=O)(O)OC[C@H]3O[C@@H](n4cnc5c(N)ncnc54)[C@H](O)[C@@H]3O)[C@@H](O)[C@H]2O)c1 [NAD^+, nicotinamide adenine dinucleotide]
X-ray crystal structure, 2.08 A (BvHSS [1]): with each subunit containing an NAD^+ molecule in the binding pocket | X-ray crystal structure, 1.75 A (BvHSS [2]): with each subunit containing an NAD^+ molecule in the binding pocket | X-ray crystal structure, 2.42 A (PaHSS; 1.3 mM NAD+ in protein solution, all six chains): All six PaHSS molecules contain an NAD^+ molecule in their binding pockets | X-ray crystal structure, 2.76 A (BvHSS [3]): with each subunit containing an NAD^+ molecule in the binding pocket | X-ray crystal structure, 1.93 A (BvHSS [4]): with each subunit containing an NAD^+ molecule in the binding pocket | X-ray crystal structure, 2.00 A (BvHSS [5]): with each subunit containing an NAD^+ molecule in the binding pocket | X-ray crystal structure, 1.77 A (BvHSS [6]): with each subunit containing an NAD^+ molecule in the binding pocket

NCCCCN [PUT, 1,4-diaminobutane]
X-ray crystal structure, 2.42 A (PaHSS; PUT not added, assumed co-purified from E. coli, active site of chains A, C and E, NAD+ present): molecules A, C and E additionally contain a PUT molecule in the active site

B1: Blastochloris viridis homospermidine synthase, wild type (enzyme)
chain: MTDWPVYHRIDGPIVMIGFGSIGRGTLPLIERHFAFDRSKLVVIDPSDEARKLAEARGVRFIQQAVTRDNYRELLVPLLTAGPGQGFCVNLSVDTSSLDIMELARENGALYIDTVVEPWLGFYFDPDLKPEARSNYALRETVLAARRNKPGGTTAVSCCGANPGMVSWFVKQALVNLAADLGVTGEEPTTREEWARLAMDLGVKGIHIAERDTQRASFPKPFDVFVNTWSVEGFVSEGLQPAELGWGTFERWMPDNARGHDSGCGAGIYLLQPGANTRVRSWTPTAMAQYGFLVTHNESISIADFLTVRDAAGQAVYRPTCHYAYHPCNDAVLSLHEMFGSGKRQSDWRILDETEIVDGIDELGVLLYGHGKNAYWYGSQLSIEETRRIAPDQNATGLQVSSAVLAGMVWALENPNAGIVEADDLDFRRCLEVQTPYLGPVVGVYTDWTPLAGRPGLFPEDIDTSDPWQFRNVLVRD
notes: also called BvHSS; wild-type BvHSS; source: E. coli BL21(DE3) Gold, purified (as described previously, Krossa et al., 2016)
stoichiometry N [7]: 2

B2: Blastochloris viridis homospermidine synthase variant W229F (enzyme)
chain: MTDWPVYHRIDGPIVMIGFGSIGRGTLPLIERHFAFDRSKLVVIDPSDEARKLAEARGVRFIQQAVTRDNYRELLVPLLTAGPGQGFCVNLSVDTSSLDIMELARENGALYIDTVVEPWLGFYFDPDLKPEARSNYALRETVLAARRNKPGGTTAVSCCGANPGMVSWFVKQALVNLAADLGVTGEEPTTREEWARLAMDLGVKGIHIAERDTQRASFPKPFDVFVNTFSVEGFVSEGLQPAELGWGTFERWMPDNARGHDSGCGAGIYLLQPGANTRVRSWTPTAMAQYGFLVTHNESISIADFLTVRDAAGQAVYRPTCHYAYHPCNDAVLSLHEMFGSGKRQSDWRILDETEIVDGIDELGVLLYGHGKNAYWYGSQLSIEETRRIAPDQNATGLQVSSAVLAGMVWALENPNAGIVEADDLDFRRCLEVQTPYLGPVVGVYTDWTPLAGRPGLFPEDIDTSDPWQFRNVLVRD
notes: homospermidine synthase of Blastochloris viridis, UniProtKB O32323, single-residue variant made by site-directed mutagenesis of BvHSS pETM-14; Same construct as m2 with one substitution; also called BvHSS (W229F); BvHSS W229F; source: E. coli BL21(DE3) Gold, purified (as described previously, Krossa et al., 2016)
binding result [8]: binds

B3: Blastochloris viridis homospermidine synthase variant E210A (enzyme)
chain: MTDWPVYHRIDGPIVMIGFGSIGRGTLPLIERHFAFDRSKLVVIDPSDEARKLAEARGVRFIQQAVTRDNYRELLVPLLTAGPGQGFCVNLSVDTSSLDIMELARENGALYIDTVVEPWLGFYFDPDLKPEARSNYALRETVLAARRNKPGGTTAVSCCGANPGMVSWFVKQALVNLAADLGVTGEEPTTREEWARLAMDLGVKGIHIAARDTQRASFPKPFDVFVNTWSVEGFVSEGLQPAELGWGTFERWMPDNARGHDSGCGAGIYLLQPGANTRVRSWTPTAMAQYGFLVTHNESISIADFLTVRDAAGQAVYRPTCHYAYHPCNDAVLSLHEMFGSGKRQSDWRILDETEIVDGIDELGVLLYGHGKNAYWYGSQLSIEETRRIAPDQNATGLQVSSAVLAGMVWALENPNAGIVEADDLDFRRCLEVQTPYLGPVVGVYTDWTPLAGRPGLFPEDIDTSDPWQFRNVLVRD
notes: homospermidine synthase of Blastochloris viridis, UniProtKB O32323, single-residue variant made by site-directed mutagenesis of BvHSS pETM-14; Same construct as m2 with one substitution; also called BvHSS (E210A); BvHSS E210A; source: E. coli BL21(DE3) Gold, purified (as described previously, Krossa et al., 2016)
binding result [8]: binds

B4: Blastochloris viridis homospermidine synthase variant E210Q (enzyme)
chain: MTDWPVYHRIDGPIVMIGFGSIGRGTLPLIERHFAFDRSKLVVIDPSDEARKLAEARGVRFIQQAVTRDNYRELLVPLLTAGPGQGFCVNLSVDTSSLDIMELARENGALYIDTVVEPWLGFYFDPDLKPEARSNYALRETVLAARRNKPGGTTAVSCCGANPGMVSWFVKQALVNLAADLGVTGEEPTTREEWARLAMDLGVKGIHIAQRDTQRASFPKPFDVFVNTWSVEGFVSEGLQPAELGWGTFERWMPDNARGHDSGCGAGIYLLQPGANTRVRSWTPTAMAQYGFLVTHNESISIADFLTVRDAAGQAVYRPTCHYAYHPCNDAVLSLHEMFGSGKRQSDWRILDETEIVDGIDELGVLLYGHGKNAYWYGSQLSIEETRRIAPDQNATGLQVSSAVLAGMVWALENPNAGIVEADDLDFRRCLEVQTPYLGPVVGVYTDWTPLAGRPGLFPEDIDTSDPWQFRNVLVRD
notes: homospermidine synthase of Blastochloris viridis, UniProtKB O32323, single-residue variant made by site-directed mutagenesis of BvHSS pETM-14; Same construct as m2 with one substitution; also called BvHSS (E210Q); BvHSS E210Q; source: E. coli BL21(DE3) Gold, purified (as described previously, Krossa et al., 2016)
binding result [8]: binds

B5: Blastochloris viridis homospermidine synthase variant W229E (enzyme)
chain: MTDWPVYHRIDGPIVMIGFGSIGRGTLPLIERHFAFDRSKLVVIDPSDEARKLAEARGVRFIQQAVTRDNYRELLVPLLTAGPGQGFCVNLSVDTSSLDIMELARENGALYIDTVVEPWLGFYFDPDLKPEARSNYALRETVLAARRNKPGGTTAVSCCGANPGMVSWFVKQALVNLAADLGVTGEEPTTREEWARLAMDLGVKGIHIAERDTQRASFPKPFDVFVNTESVEGFVSEGLQPAELGWGTFERWMPDNARGHDSGCGAGIYLLQPGANTRVRSWTPTAMAQYGFLVTHNESISIADFLTVRDAAGQAVYRPTCHYAYHPCNDAVLSLHEMFGSGKRQSDWRILDETEIVDGIDELGVLLYGHGKNAYWYGSQLSIEETRRIAPDQNATGLQVSSAVLAGMVWALENPNAGIVEADDLDFRRCLEVQTPYLGPVVGVYTDWTPLAGRPGLFPEDIDTSDPWQFRNVLVRD
notes: homospermidine synthase of Blastochloris viridis, UniProtKB O32323, single-residue variant made by site-directed mutagenesis of BvHSS pETM-14; Same construct as m2 with one substitution; also called BvHSS (W229E); BvHSS W229E; source: E. coli BL21(DE3) Gold, purified (as described previously, Krossa et al., 2016)
binding result [8]: binds

B6: Blastochloris viridis homospermidine synthase variant E117Q (enzyme)
chain: MTDWPVYHRIDGPIVMIGFGSIGRGTLPLIERHFAFDRSKLVVIDPSDEARKLAEARGVRFIQQAVTRDNYRELLVPLLTAGPGQGFCVNLSVDTSSLDIMELARENGALYIDTVVQPWLGFYFDPDLKPEARSNYALRETVLAARRNKPGGTTAVSCCGANPGMVSWFVKQALVNLAADLGVTGEEPTTREEWARLAMDLGVKGIHIAERDTQRASFPKPFDVFVNTWSVEGFVSEGLQPAELGWGTFERWMPDNARGHDSGCGAGIYLLQPGANTRVRSWTPTAMAQYGFLVTHNESISIADFLTVRDAAGQAVYRPTCHYAYHPCNDAVLSLHEMFGSGKRQSDWRILDETEIVDGIDELGVLLYGHGKNAYWYGSQLSIEETRRIAPDQNATGLQVSSAVLAGMVWALENPNAGIVEADDLDFRRCLEVQTPYLGPVVGVYTDWTPLAGRPGLFPEDIDTSDPWQFRNVLVRD
notes: homospermidine synthase of Blastochloris viridis, UniProtKB O32323, single-residue variant made by site-directed mutagenesis of BvHSS pETM-14; Same construct as m2 with one substitution; also called BvHSS (E117Q); BvHSS E117Q; source: E. coli BL21(DE3) Gold, purified (as described previously, Krossa et al., 2016)
binding result [8]: binds

B7: Blastochloris viridis homospermidine synthase variant W229A (enzyme)
chain: MTDWPVYHRIDGPIVMIGFGSIGRGTLPLIERHFAFDRSKLVVIDPSDEARKLAEARGVRFIQQAVTRDNYRELLVPLLTAGPGQGFCVNLSVDTSSLDIMELARENGALYIDTVVEPWLGFYFDPDLKPEARSNYALRETVLAARRNKPGGTTAVSCCGANPGMVSWFVKQALVNLAADLGVTGEEPTTREEWARLAMDLGVKGIHIAERDTQRASFPKPFDVFVNTASVEGFVSEGLQPAELGWGTFERWMPDNARGHDSGCGAGIYLLQPGANTRVRSWTPTAMAQYGFLVTHNESISIADFLTVRDAAGQAVYRPTCHYAYHPCNDAVLSLHEMFGSGKRQSDWRILDETEIVDGIDELGVLLYGHGKNAYWYGSQLSIEETRRIAPDQNATGLQVSSAVLAGMVWALENPNAGIVEADDLDFRRCLEVQTPYLGPVVGVYTDWTPLAGRPGLFPEDIDTSDPWQFRNVLVRD
notes: homospermidine synthase of Blastochloris viridis, UniProtKB O32323, single-residue variant made by site-directed mutagenesis of BvHSS pETM-14; Same construct as m2 with one substitution; also called BvHSS (W229A); BvHSS W229A; source: E. coli BL21(DE3) Gold, purified (as described previously, Krossa et al., 2016)
binding result [8]: binds
